Activity calls are given as the source filed them. The rule behind the calls is not given here.
What was measured:
LS174T = assay: LS-174T cell line Proliferation assay; format: functional, Homo sapiens; settings: time 3 day
[1] = molecular target: Mitogen-activated protein kinase kinase kinase kinase 4 (Homo sapiens) (UniProt O95819); assay: MAP4K4(h) Eurofins kinase panel; settings: Compound concentration 1.0 uM
[2] = molecular target: CDK3/cyclin E (Homo sapiens) (UniProt P24864+O96020+Q00526); assay: CDK3/cyclinE(h) Eurofins kinase panel; format: protein-complex assay; settings: Compound concentration 1.0 uM
[3] = molecular target: Serine/threonine-protein kinase A-Raf (Homo sapiens) (UniProt P10398); assay: A-Raf(h) Eurofins kinase panel; settings: Compound concentration 1.0 uM
[4] = molecular target: T1, Serine/threonine-protein kinase Nek3 (Homo sapiens) (UniProt P51956); assay: NEK3(h) Eurofins kinase panel; settings: Compound concentration 1.0 uM
T1 sequence (whole entry): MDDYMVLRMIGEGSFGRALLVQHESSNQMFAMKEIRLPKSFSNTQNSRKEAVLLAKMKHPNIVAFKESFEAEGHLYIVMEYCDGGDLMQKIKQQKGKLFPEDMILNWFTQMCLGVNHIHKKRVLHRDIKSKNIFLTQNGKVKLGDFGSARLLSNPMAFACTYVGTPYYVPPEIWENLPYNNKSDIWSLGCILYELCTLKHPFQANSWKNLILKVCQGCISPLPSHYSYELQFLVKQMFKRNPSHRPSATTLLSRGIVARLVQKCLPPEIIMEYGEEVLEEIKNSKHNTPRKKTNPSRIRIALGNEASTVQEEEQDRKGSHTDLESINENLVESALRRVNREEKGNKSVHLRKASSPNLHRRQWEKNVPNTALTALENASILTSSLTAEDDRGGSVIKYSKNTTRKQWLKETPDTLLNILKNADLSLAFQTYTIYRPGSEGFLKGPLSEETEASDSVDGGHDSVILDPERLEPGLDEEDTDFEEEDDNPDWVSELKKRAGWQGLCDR

[5] = molecular target: DNA-dependent protein kinase catalytic subunit (Homo sapiens) (UniProt P78527); assay: DNA-PK(h) Eurofins kinase panel; settings: Compound concentration 1.0 uM
[6] = molecular target: Dual specificity protein kinase CLK4 (Homo sapiens) (UniProt Q9HAZ1); assay: CLK4(h) Eurofins kinase panel; settings: Compound concentration 1.0 uM
SW780 = assay: SW780 cell line Proliferation assay; format: functional, Homo sapiens; settings: time 3 day
SU-DHL10 = assay: SU-DHL-10 cell line Proliferation assay; format: functional, Homo sapiens; settings: time 3 day
[7] = molecular target: Calcium/calmodulin-dependent protein kinase type II subunit alpha (Homo sapiens) (UniProt Q9UQM7); assay: CaMKIIalpha(h) Eurofins kinase panel; settings: Compound concentration 1.0 uM
A-375 = assay: A375 cell line Proliferation assay; format: functional, Homo sapiens; settings: time 3 day
[8] = molecular target: Mitogen-activated protein kinase 9 (Homo sapiens) (UniProt P45984); assay: JNK2alpha2(h) Eurofins kinase panel; settings: Compound concentration 1.0 uM
[9] = molecular target: T2, Serine/threonine-protein kinase Nek2 (Homo sapiens) (UniProt P51955); assay: NEK2(h) Eurofins kinase panel; settings: Compound concentration 1.0 uM
T2 sequence (whole entry): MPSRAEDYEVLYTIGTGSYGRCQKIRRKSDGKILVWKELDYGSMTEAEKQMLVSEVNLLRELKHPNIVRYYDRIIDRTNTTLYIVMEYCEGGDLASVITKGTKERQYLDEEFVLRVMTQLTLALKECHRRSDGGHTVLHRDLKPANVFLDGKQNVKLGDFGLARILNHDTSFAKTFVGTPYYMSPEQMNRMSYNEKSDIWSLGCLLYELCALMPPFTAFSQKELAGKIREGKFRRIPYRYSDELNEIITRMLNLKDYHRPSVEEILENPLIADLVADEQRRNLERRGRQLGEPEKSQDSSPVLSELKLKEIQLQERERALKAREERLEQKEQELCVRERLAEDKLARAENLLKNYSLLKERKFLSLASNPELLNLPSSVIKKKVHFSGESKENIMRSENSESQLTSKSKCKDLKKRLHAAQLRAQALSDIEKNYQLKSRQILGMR

[10] = molecular target: Vascular endothelial growth factor receptor 2 (Homo sapiens) (UniProt P35968); assay: KDR(h) Eurofins kinase panel; settings: Compound concentration 1.0 uM
[11] = molecular target: Fibroblast growth factor receptor 4 (Homo sapiens) (UniProt P22455); assay: FGFR4(h) Eurofins kinase panel; settings: Compound concentration 1.0 uM
[12] = molecular target: Glycogen synthase kinase-3 beta (Homo sapiens) (UniProt P49841); assay: GSK3β(h) Eurofins kinase panel; settings: Compound concentration 1.0 uM
[13] = molecular target: Ribosomal protein S6 kinase alpha-1 (Homo sapiens, UniProt Q15418); assay: Eurofins kinase panel (RPS6KA1); parameters: compound concentration 1 uM
[14] = molecular target: T3, Tyrosine-protein kinase JAK3 (Homo sapiens) (UniProt P52333); assay: JAK3(h) Eurofins kinase panel; settings: Compound concentration 1.0 uM
T3 sequence (whole entry): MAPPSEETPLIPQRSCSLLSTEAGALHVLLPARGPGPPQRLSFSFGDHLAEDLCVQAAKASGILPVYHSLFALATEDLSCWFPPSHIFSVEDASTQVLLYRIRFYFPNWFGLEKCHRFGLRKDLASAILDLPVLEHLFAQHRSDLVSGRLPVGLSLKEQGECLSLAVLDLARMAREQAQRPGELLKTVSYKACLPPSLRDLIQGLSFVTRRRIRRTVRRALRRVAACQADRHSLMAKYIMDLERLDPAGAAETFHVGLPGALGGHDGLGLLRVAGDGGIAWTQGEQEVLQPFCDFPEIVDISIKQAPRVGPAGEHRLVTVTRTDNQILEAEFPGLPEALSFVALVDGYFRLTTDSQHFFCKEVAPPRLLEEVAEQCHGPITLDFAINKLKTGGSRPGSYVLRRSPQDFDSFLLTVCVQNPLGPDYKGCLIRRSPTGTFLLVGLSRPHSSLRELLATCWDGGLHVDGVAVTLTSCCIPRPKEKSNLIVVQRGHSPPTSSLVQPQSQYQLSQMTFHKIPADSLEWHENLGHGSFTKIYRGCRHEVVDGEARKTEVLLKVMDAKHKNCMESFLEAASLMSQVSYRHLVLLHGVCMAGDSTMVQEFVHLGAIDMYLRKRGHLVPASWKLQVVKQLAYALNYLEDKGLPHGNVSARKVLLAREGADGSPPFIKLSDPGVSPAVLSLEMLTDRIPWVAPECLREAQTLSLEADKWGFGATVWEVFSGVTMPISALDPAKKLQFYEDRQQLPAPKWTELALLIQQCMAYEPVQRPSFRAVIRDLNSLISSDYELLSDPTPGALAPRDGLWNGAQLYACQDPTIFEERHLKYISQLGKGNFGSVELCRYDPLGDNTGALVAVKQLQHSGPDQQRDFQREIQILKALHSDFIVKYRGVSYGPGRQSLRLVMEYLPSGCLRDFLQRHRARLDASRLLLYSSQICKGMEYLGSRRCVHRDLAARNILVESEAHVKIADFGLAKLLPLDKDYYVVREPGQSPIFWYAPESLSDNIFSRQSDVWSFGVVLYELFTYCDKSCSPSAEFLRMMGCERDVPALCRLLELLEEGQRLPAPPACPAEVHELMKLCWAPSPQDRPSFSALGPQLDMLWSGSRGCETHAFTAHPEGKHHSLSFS

[15] = molecular target: Ribosomal protein S6 kinase alpha-6 (Homo sapiens) (UniProt Q9UK32); assay: Rsk4(h) Eurofins kinase panel; settings: Compound concentration 1.0 uM
[16] = molecular target: Wee1-like protein kinase 2 (Homo sapiens) (UniProt P0C1S8); assay: Wee1B(h) Eurofins kinase panel; settings: Compound concentration 1.0 uM
[17] = molecular target: Ribosomal protein S6 kinase alpha-5 (Homo sapiens, UniProt O75582)

DNA-dependent protein kinase catalytic subunit (Homo sapiens), sequence (P78527 whole entry): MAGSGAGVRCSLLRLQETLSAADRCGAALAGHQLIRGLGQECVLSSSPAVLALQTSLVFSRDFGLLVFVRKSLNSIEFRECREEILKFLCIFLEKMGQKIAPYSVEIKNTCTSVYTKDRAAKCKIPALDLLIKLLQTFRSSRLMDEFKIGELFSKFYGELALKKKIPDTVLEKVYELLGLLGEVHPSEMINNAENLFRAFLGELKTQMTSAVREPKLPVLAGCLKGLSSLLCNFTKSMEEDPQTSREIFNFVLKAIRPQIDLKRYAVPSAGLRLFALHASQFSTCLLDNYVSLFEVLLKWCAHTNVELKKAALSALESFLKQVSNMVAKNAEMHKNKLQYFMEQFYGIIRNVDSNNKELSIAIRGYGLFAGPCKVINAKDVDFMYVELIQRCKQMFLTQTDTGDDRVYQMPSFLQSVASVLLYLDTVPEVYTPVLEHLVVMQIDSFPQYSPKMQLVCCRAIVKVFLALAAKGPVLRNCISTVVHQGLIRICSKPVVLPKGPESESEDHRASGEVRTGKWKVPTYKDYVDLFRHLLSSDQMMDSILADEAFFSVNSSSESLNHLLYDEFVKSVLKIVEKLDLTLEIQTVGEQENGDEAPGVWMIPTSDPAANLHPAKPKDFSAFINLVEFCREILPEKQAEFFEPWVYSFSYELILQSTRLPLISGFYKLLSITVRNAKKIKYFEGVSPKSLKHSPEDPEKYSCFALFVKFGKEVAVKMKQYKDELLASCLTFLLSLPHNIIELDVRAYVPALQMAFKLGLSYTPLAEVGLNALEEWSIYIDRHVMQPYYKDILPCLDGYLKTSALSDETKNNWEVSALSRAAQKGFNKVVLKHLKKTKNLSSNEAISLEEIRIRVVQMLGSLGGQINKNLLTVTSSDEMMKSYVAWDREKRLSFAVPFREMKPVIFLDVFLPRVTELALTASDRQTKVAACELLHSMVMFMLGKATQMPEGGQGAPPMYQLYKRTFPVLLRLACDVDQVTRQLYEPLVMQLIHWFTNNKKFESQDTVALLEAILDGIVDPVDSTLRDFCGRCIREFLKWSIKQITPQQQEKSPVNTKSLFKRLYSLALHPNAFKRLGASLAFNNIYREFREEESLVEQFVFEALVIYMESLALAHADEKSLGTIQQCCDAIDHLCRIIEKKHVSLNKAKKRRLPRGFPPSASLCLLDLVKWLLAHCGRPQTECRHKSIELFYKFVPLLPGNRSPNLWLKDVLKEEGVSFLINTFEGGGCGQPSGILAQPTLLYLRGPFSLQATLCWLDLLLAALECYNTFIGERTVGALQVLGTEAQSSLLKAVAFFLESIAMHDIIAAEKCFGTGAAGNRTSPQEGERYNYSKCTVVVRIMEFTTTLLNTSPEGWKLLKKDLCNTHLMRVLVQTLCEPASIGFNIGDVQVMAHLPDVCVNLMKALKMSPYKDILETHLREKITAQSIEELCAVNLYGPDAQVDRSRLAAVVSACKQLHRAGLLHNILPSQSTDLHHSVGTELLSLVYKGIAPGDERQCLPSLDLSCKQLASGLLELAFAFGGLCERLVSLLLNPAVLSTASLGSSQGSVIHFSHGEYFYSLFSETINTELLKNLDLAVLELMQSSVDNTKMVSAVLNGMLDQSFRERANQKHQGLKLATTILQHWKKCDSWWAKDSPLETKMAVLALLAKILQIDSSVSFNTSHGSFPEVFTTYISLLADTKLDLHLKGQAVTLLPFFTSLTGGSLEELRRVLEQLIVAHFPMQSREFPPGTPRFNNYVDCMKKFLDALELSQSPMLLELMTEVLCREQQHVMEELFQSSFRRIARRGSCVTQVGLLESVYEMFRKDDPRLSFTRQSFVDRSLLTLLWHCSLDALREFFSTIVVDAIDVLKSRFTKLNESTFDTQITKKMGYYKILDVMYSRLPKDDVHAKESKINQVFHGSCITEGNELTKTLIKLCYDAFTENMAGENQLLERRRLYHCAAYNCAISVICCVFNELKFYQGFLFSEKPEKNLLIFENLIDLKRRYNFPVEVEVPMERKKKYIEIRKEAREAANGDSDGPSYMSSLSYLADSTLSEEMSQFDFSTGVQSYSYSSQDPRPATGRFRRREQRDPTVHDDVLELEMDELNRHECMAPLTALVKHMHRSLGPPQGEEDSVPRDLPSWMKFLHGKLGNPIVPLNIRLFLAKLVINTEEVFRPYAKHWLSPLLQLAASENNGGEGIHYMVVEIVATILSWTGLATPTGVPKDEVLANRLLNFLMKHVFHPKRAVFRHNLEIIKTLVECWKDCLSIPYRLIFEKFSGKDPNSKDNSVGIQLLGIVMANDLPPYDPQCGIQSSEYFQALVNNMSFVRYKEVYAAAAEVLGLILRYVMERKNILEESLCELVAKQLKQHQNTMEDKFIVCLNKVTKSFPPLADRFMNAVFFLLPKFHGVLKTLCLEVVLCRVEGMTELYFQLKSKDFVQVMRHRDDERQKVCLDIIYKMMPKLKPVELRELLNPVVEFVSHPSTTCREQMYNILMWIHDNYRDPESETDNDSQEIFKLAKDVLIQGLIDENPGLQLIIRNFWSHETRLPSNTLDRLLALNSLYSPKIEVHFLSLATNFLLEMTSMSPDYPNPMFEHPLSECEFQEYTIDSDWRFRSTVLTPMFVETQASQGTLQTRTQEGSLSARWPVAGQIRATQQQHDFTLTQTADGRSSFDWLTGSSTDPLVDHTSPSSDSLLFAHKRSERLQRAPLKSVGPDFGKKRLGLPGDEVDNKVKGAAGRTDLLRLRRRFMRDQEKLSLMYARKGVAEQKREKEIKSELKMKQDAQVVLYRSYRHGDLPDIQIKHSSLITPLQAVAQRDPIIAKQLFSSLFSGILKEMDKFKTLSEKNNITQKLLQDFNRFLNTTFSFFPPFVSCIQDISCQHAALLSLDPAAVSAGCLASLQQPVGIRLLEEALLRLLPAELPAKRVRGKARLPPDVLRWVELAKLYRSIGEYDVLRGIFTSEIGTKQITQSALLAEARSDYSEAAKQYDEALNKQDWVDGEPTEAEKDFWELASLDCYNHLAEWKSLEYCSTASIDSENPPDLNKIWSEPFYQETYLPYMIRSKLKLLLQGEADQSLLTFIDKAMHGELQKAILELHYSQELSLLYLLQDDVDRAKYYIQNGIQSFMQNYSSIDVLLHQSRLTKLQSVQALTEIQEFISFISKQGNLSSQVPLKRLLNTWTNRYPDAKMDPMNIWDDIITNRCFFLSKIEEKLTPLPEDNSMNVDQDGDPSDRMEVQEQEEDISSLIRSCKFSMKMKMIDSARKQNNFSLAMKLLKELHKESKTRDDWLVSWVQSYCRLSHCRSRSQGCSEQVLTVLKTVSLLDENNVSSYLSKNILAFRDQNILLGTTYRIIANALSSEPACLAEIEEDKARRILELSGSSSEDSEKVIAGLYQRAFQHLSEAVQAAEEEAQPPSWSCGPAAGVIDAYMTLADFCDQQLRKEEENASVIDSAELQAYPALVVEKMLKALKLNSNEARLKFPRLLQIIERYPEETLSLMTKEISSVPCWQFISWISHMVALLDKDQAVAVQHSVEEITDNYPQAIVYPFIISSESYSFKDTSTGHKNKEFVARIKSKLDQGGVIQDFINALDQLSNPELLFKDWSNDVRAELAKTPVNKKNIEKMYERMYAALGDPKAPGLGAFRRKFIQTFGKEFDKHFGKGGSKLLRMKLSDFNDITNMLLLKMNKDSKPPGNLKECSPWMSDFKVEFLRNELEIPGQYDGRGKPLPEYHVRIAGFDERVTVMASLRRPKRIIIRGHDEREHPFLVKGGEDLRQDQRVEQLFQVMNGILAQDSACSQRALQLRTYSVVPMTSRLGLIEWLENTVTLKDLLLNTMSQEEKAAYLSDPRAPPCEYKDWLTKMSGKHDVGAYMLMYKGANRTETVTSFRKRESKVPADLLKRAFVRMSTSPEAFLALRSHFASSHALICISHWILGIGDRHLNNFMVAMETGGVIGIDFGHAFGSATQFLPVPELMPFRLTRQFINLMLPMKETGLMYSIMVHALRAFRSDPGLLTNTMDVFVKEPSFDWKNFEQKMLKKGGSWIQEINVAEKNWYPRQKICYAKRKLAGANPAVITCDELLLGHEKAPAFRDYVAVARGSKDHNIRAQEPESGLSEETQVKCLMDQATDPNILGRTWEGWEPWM
Ribosomal protein S6 kinase alpha-6 (Homo sapiens), sequence (Q9UK32 whole entry): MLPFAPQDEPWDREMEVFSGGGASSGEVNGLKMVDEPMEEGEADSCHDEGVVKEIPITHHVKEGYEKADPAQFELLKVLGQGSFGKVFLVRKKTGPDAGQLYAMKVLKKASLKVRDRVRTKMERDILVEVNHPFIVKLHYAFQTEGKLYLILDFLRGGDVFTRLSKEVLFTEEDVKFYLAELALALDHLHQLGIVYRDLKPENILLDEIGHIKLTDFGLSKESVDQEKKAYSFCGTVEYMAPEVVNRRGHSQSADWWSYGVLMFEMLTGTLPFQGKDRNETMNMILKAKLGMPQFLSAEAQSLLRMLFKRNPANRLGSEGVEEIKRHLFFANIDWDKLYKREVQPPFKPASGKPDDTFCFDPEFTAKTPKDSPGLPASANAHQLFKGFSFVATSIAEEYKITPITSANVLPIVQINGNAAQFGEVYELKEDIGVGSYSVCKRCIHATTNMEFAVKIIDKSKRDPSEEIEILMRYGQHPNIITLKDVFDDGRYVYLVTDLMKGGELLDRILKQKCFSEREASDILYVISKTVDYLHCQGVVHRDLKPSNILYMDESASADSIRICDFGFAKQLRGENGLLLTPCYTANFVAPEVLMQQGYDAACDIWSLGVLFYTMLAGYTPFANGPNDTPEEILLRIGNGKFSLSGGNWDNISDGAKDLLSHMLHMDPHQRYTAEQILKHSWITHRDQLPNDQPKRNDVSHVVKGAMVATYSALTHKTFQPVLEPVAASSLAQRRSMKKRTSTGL

Question: `CCc1ccccc1C(=O)Nc1n[nH]c2c(C)c(F)c(C3C(C#N)=C(C)N(C)C(C)=C3C#N)cc12` [BAY-3827] was tested. Which “Cell Proliferation IC50” value (LS174T) did it give?
Answer: >30 µM

Question: What about the % residual kinase activity [1] of the same compound?
Answer: 91%

Question: What about the % residual kinase activity [2] of the same compound?
Answer: 100%

Question: What about the % residual kinase activity [3] of the same compound?
Answer: 78%

Question: What about the % residual kinase activity [4] of the same compound?
Answer: 102%

Question: What about the % residual kinase activity [5] of the same compound?
Answer: 94%

Question: What about the % residual kinase activity [6] of the same compound?
Answer: 104%

Question: And the “Cell Proliferation IC50” value (SW780)?
Answer: 10.3 µM

Question: What about the “Cell Proliferation IC50” value (SU-DHL10) of the same compound?
Answer: 12.5 µM

Question: And the % residual kinase activity [7]?
Answer: 81%

Question: And the “Cell Proliferation IC50” value (A-375)?
Answer: 22.8 µM

Question: And the % residual kinase activity [8]?
Answer: 88%

Question: And the % residual kinase activity [9]?
Answer: 91%

Question: And the % residual kinase activity [10]?
Answer: 90%

Question: What about the % residual kinase activity [11] of the same compound?
Answer: 99%

Question: And the % residual kinase activity [12]?
Answer: 58%

Question: And the IC50 [13]?
Answer: 0.0091 µM (active)

Question: And the % residual kinase activity [14]?
Answer: 93%

Question: What about the % residual kinase activity [15] of the same compound?
Answer: 2%

Question: What about the % residual kinase activity [16] of the same compound?
Answer: 101%

Question: What about the IC50 [17] of the same compound?
Answer: 0.043 µM
